# Reference: patent US20250353848A1, “HETEROCYCLIC PAD4 INHIBITORS” (Celgene Corporation, priority 2022, published 2025)
# Molecular target: T1, hPAD4 enzyme (Homo sapiens, UniProt Q9UM07)
# Experiment: RFMS Assay 2 (rapid-fire mass spectrum PAD4 inhibition assay, peptide substrate)
# Assay type: biochemical
# Details: 35 nM recombinant human PAD4, substrate TSTGGRQGSHH, room temperature for 30 minutes; read-out: human PAD4 (hPAD4) IC50, RFMS Assay 2
# Method: Stock compounds were dissolved and stored in 100% DMSO. Compound solutions were prepared via serial dilution at 3-fold intervals in DMSO with top compound concentration at […] in each assay. 0.25 μl of compound solution was transferred from the compound plate to the assay plate by using an acoustic dispenser. Final assay conditions: • Total reaction volume: 25 μl • Assay buffer: […] pH 7.4, 200 mM NaCl, 2 mM CaCl2, 5 mM DTT • 35 nM recombinant human PAD4 • 500 µM TSTGGRQGSHH (SEQ ID NO: 1) • 1.2% DMSO • Stop solution: 10% formic acid
# Reaction mixtures were incubated at room temperature for 30 minutes. 10 μl each of the reaction mixtures was then mixed with 40 μl of 10% formic acid in a microtiter plate. The plate was frozen at −80° C. before shipping out on dry ice for RapidFire mass spectroscopy analysis.
# Thawed samples were loaded onto the Rapid Fire 300 system (Agilent) wherein they were first sipped for 250 ms and then loaded onto a Agilent “C” (C18) cartridge using a mobile phase of water containing 0.09% formic acid/0.01% trifluoroacetic acid for 3000 ms desalting flowing at a rate of 1.5 ml/min. Once the samples were loaded and washed, a mobile phase of acetonitrile containing 0.09% formic acid/0.01% trifluoroacetic acid was used to elute the samples directly onto a Sciex API4000 triple quadrupole mass spectrometer for 3000 ms at a flow rate of 1.25 ml/min.
# MRM transitions for substrate and product were monitored in positive ESI mode at m/z=562.3/969.7 and m/z=562.8/541.3 respectively. The dwell time for each transition was set at 100 ms, and the ESI voltage was used at 5500 with a source temperature of 650° C. Extracted ion peaks for each transition were integrated using the Rapid Fire Integrator software.
# T1 sequence (Q9UM07 whole entry): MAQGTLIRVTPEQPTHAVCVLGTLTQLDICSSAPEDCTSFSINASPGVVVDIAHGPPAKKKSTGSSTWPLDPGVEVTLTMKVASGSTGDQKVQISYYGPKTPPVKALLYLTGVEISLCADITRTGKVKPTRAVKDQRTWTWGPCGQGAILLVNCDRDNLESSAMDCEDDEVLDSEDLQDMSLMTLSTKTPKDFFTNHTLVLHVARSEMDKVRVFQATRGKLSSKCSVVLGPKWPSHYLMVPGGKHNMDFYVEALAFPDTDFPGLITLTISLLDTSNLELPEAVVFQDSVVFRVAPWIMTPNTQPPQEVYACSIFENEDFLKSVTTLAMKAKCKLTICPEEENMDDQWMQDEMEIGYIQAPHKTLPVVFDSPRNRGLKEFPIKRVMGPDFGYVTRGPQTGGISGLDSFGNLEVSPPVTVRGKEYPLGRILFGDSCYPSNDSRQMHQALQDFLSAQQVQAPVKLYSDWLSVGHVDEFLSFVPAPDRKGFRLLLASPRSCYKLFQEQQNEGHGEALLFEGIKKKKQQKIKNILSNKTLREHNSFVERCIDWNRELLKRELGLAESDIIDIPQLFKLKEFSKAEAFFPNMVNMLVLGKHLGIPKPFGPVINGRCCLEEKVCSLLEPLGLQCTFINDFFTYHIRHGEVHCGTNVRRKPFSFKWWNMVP
row,Compound,IC50
1,"COc1cccc2cc(-c3nc4cc5c(nc4n3C)CCN(C[C@H](N)CF)C5=O)n(Cc3oncc3C)c12 [Example 9, (S)-7-(2-amino-3-fluoropropyl)-2-(7-methoxy-1-((4-methylisoxazol-5-yl)methyl)-1H-indol-2-yl)-3-methyl-3,5,6,7-tetrahydro-8H-imidazo[4,5-b][1,6]naphthyridin-8-one]",101 to 500 nM
2,"Cn1c(-c2cc3cccc(OCC4CC(=O)NC4(C)C)c3n2CC2CC2)nc2cc3c(nc21)CCN(C[C@H](N)CF)C3=O (stereo partly drawn) [Example 35, 7-((S)-2-amino-3-fluoropropyl)-2-(1-(cyclopropylmethyl)-7-((2,2-dimethyl-5-oxopyrrolidin-3-yl)methoxy)-1H-indol-2-yl)-3-methyl-3,5,6,7-tetrahydro-8H-imidazo[4,5-b][1,6]naphthyridin-8-one]",501 to 1000 nM
3,"COc1cccc2cc(-c3nc4cc5c(nc4n3C)CCN(C[C@H](N)CF)C5=O)n(Cc3ncc(C)s3)c12 [Example 10, (S)-7-(2-amino-3-fluoropropyl)-2-(7-methoxy-1-((5-methylthiazol-2-yl)methyl)-1H-indol-2-yl)-3-methyl-3,5,6,7-tetrahydro-8H-imidazo[4,5-b][1,6]naphthyridin-8-one]",> 1000 nM
4,"CC(Cc1cnco1)Oc1cc(F)cc2cc(-c3nc4cc5c(nc4n3C)CCN(C[C@H](N)CF)C5=O)n(CC3CC3)c12 (single isomer, unassigned) [Example 64]",101 to 500 nM
5,"Cn1c(-c2cc3cccc(OC[C@H]4CNC(=O)C4)c3n2CC2CC2)nc2cc3c(nc21)CCN(C[C@H](N)CF)C3=O [Example 60, 7-((S)-2-amino-3-fluoropropyl)-2-(1-(cyclopropylmethyl)-7-(((R)-5-oxopyrrolidin-3-yl)methoxy)-1H-indol-2-yl)-3-methyl-3,5,6,7-tetrahydro-8H-imidazo[4,5-b][1,6]naphthyridin-8-one]",101 to 500 nM
6,"COc1cccc2cc(-c3nc4cc5c(nc4n3C)CCN(C[C@H](N)CF)C5=O)n(Cc3nc(C)co3)c12 [Example 13, (S)-7-(2-amino-3-fluoropropyl)-2-(7-methoxy-1-((4-methyloxazol-2-yl)methyl)-1H-indol-2-yl)-3-methyl-3,5,6,7-tetrahydro-8H-imidazo[4,5-b][1,6]naphthyridin-8-one]",501 to 1000 nM
7,"COc1ccc2cc(-c3nc4cc5c(nc4n3C)CCN(C[C@H](N)CF)C5=O)n(CC3CC3)c2c1 [Example 18, (S)-7-(2-amino-3-fluoropropyl)-2-(1-(cyclopropylmethyl)-6-methoxy-1H-indol-2-yl)-3-methyl-3,5,6,7-tetrahydro-8H-imidazo[4,5-b][1,6]naphthyridin-8-one]",501 to 1000 nM
8,"Cc1cccc2cc(-c3nc4cc5c(nc4n3C)CCN(C[C@H](N)CF)C5=O)n(Cc3ccno3)c12 [Example 17, (S)-7-(2-amino-3-fluoropropyl)-2-(1-(isoxazol-5-ylmethyl)-7-methyl-1H-indol-2-yl)-3-methyl-3,5,6,7-tetrahydro-8H-imidazo[4,5-b][1,6]naphthyridin-8-one]",501 to 1000 nM
9,"CC(Cc1cnco1)Oc1cc(F)cc2cc(-c3nc4cc5c(nc4n3C)CCN(C[C@H](N)CF)C5=O)n(CC3CC3)c12 (single isomer, unassigned) [Example 65b]",101 to 500 nM

# Molecular target: T1, hPAD4 enzyme
# Experiment: RFMS Assay 1 (rapid-fire mass spectrum PAD4 inhibition assay, BAEE substrate)
# Assay type: biochemical
# Details: 5 nM hPAD4 enzyme, 250 μM BAEE, 30 mins compound and enzyme preincubation at 37° C., 90 min enzyme/substrate reaction
# Method: Compounds were solubilized in 100% DMSO to achieve a 10 mM compound concentration. Compound stock solutions were stored at RT. A series of dilutions were prepared in DMSO and mixed 8 times with 20 μL mixing volume. Final top concentration of compound in the assay is 50 μM. Final assay conditions were as follows: • Reaction volume: 26 μl • Assay buffer: 25 mM hepes, pH 7.5, 5 mM NaCl, 1 mM DTT, 0.2 mg/ml BSA, 0.01% CHAPS, 50 μM Calcium, and 5 μM TPEN • Final concentrations: 5 nM hPAD4 enzyme, 250 μM BAEE, and 0.5% DMSO • Total incubation time: 30 mins compound and enzyme preincubation at 37° C., 90 min enzyme/substrate reaction, 30 min reaction with phenyl glyoxal at 37° C. • Stop solution: 40 μl 5% TCA in ACN
# 0.13 μL of compound solution was added to 13 μL of 10 nM PAD4 in assay buffer. After 30 min 13 μl of 500 μM of BAEE was added in 25 mM hepes, pH 7.5, 5 mM NaCl, 1 mM DTT, 0.2 mg/ml BSA, 0.01% CHAPS, 50 µM Calcium, […] was added and the reaction incubated for 90 min at 37° C. The enzymatic reaction was quenched by addition of 15 μl of 6.1N TCA, 100% Final Concentration is 20%, 35 μl of 8.5 mM phenyl glyoxal (final concentration 4 mM) is then added and the reaction is incubated for 30 min at 37° C.
# After 30 minutes the plates are spun down to remove all precipitate. The enzyme reaction was quenched with an equal volume of methanol containing internal standard (modified citrulline). Samples were loaded onto the Rapid Fire RF300 system (Agilent) wherein they were first sipped for 1000 ms and then directly loaded to a C18 separations cartridge using a mixture of acetonitrile containing 0.01% formic acid for 3000 ms desalting. The flow rate of the mobile phase was 1.5 ml/min. Once the samples were eluted from the cartridge, a mobile phase of acetonitrile containing 0.01% formic acid was used to move the samples into the mass spectrometer for 4000 ms at a flow rate of 1.25 ml/min/Sciex AP15500 triple quadrupole mass spectrometer (Applied Biosystems) equipped with ESI was used to analyze the peptidyl citrulline and internal standard ions.
# MRM transition of product and internal standard were monitored at m/z 424.5 to 350.4 and m/z 293 to 247 respectively. The dwell time for each transition was set at 200 ms, and the ESI voltage was used at 5500 with a source temperature of 400° C. Extracted ion peaks for each transition were integrated using the Rapid Fire Integrator software. Peak area of analyte was normalized with internal standard.).
row,Compound,IC50
1,"COc1cccc2cc(-c3nc4cc5c(nc4n3C)CCN(C[C@H]3COCCN3)C5=O)n(CCOC(F)F)c12 [Example 28, (S)-2-(1-(2-(difluoromethoxy)ethyl)-7-methoxy-1H-indol-2-yl)-3-methyl-7-(morpholin-3-ylmethyl)-3,5,6,7-tetrahydro-8H-imidazo[4,5-b][1,6]naphthyridin-8-one]",501 to 1000 nM
2,"Cn1c(-c2cc3cccc(OC(F)Cn4cnc(F)c4)c3n2CC2CC2)nc2cc3c(nc21)CCN(C[C@H](N)CF)C3=O (single isomer, unassigned) [Example 73b]",≤ 10 nM
3,"[2H]c1nc([2H])n(CCOc2cccc3cc(-c4nc5cc6c(nc5n4C)CCN(C[C@H](N)CF)C6=O)n(CC4CC4)c23)c1[2H] [Example 90, (S)-2-(7-(2-(1H-imidazol-1-yl-d3)ethoxy)-1-(cyclopropylmethyl)-1H-indol-2-yl)-7-(2-amino-3-fluoropropyl)-3-methyl-3,5,6,7-tetrahydro-8H-imidazo[4,5-b][1,6]naphthyridin-8-one]",≤ 10 nM
4,"Cn1c(-c2cc3cccc(OCC(F)n4ccnc4)c3n2CC2CC2)nc2cc3c(nc21)CCN(C[C@H](N)CF)C3=O (single isomer, unassigned) [Example 79a]",11 to 100 nM
5,"CO[C@H](C)C(=O)N1CCC(c2cccc3cc(-c4nc5cc6c(nc5n4C)CCN(C[C@H](N)CF)C6=O)n(CC4CC4)c23)CC1 [Example 31, 7-((S)-2-amino-3-fluoropropyl)-2-(1-(cyclopropylmethyl)-7-(1-((R)-2-methoxypropanoyl)piperidin-4-yl)-1H-indol-2-yl)-3-methyl-3,5,6,7-tetrahydro-8H-imidazo[4,5-b][1,6]naphthyridin-8-one]",11 to 100 nM
6,"C[C@H](O)C(=O)N1CCC(c2cccc3cc(-c4nc5cc6c(nc5n4C)CCN(C[C@H](N)CF)C6=O)n(CC4CC4)c23)CC1 [Example 32, 7-((S)-2-amino-3-fluoropropyl)-2-(1-(cyclopropylmethyl)-7-(1-((S)-2-hydroxypropanoyl)piperidin-4-yl)-1H-indol-2-yl)-3-methyl-3,5,6,7-tetrahydro-8H-imidazo[4,5-b][1,6]naphthyridin-8-one]",101 to 500 nM
7,"C[C@H](COc1cccc2cc(-c3nc4cc5c(nc4n3C)CCN(C[C@@H](C)N)C5=O)n(CC3CC3)c12)n1cnc(F)c1 [Example 81, 7-((R)-2-aminopropyl)-2-(1-(cyclopropylmethyl)-7-((R)-2-(4-fluoro-1H-imidazol-1-yl)propoxy)-1H-indol-2-yl)-3-methyl-3,5,6,7-tetrahydro-8H-imidazo[4,5-b][1,6]naphthyridin-8-one]",≤ 10 nM
8,"Cn1c(-c2cc3cccc(OCCn4cnc(Cl)n4)c3n2CC2CC2)nc2cc3c(nc21)CCN(C[C@H](N)CF)C3=O [Example 92, (S)-7-(2-amino-3-fluoropropyl)-2-(7-(2-(3-chloro-1H-1,2,4-triazol-1-yl)ethoxy)-1-(cyclopropylmethyl)-1H-indol-2-yl)-3-methyl-3,5,6,7-tetrahydro-8H-imidazo[4,5-b][1,6]naphthyridin-8-one]",11 to 100 nM
9,"Cn1c(-c2cc3cccc(OC(C)(F)Cn4ccnc4)c3n2CC2CC2)nc2cc3c(nc21)CCN(C[C@H](N)CF)C3=O (single isomer, unassigned) [Example 76a]",11 to 100 nM
10,"COc1cccc2cc(-c3nc4cc5c(nc4n3C)CCN(C[C@H](N)CF)C5=O)n(CCOC(F)(F)F)c12 [Example 5, (S)-7-(2-amino-3-fluoropropyl)-2-(7-methoxy-1-(2-(trifluoromethoxy)ethyl)-1H-indol-2-yl)-3-methyl-3,5,6,7-tetrahydro-8H-imidazo[4,5-b][1,6]naphthyridin-8-one]",101 to 500 nM
